The values that follow come from US20260216294A1, “BETA 2-ADRENERGIC RECEPTOR AGONISTS FOR TREATMENT OR PREVENTION OF MUSCLE WASTING” (ATROGI AB, priority 2023, published 2026).

Assay [1] relates to L6-myotubes. In words: Measurement of intracellular cAMP levels in differentiated L6-myotubes (Biological Example 3). It counts as cell-based. The following applies: for Emax at 10 µM: 0.25 h. The essentials:
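Serum-starved differentiated L6 myotubes stimulated 15 min with test compound at 1×10^−5 M final (isoprenaline as reference) in HBSS with 1% BSA, 5 mM HEPES, 1 mM IBMX, pH 7.4. Cells EtOH-extracted, lysed, and intracellular cAMP measured by AlphaScreen.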

In assay [2] the test system is L6-myotubes. Description: Glucose uptake in differentiated L6-myotubes (Biological Example 2). Type of assay: cell-based. The following applies: for Emax at 10 µM: read-out: Biological example 2 (GU). In a few lines: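 Differentiated L6 myotubes were serum-starved overnight in 0.5% fatty-acid-free BSA and then stimulated with compound or isoprenaline at 1×10^−5 M final. After 1 h 40 min cells were washed and re-dosed in glucose-free medium. Twenty minutes later, uptake of 50 nM ^3H-2-deoxyglucose over 10 min was measured by scintillation counting of NaOH lysates.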

Where [3] appears, read: intracellular cAMP in differentiated L6-myotubes, compound at 10 μM, activity relative to isoproterenol at 10 μM.
[4] abbreviates: glucose uptake in differentiated L6-myotubes, compound at 10 μM, activity relative to isoproterenol at 10 μM.
Where [5] appears, read: intracellular cAMP, compound at 10 μM relative to isoproterenol at 10 μM.
The mark [6] stands for this setting: glucose uptake, compound at 10 μM relative to isoproterenol at 10 μM.

The structures appear in SMILES notation.

Turning to `CC(C)(C)NC[C@H](O)c1cccc(C#N)n1` [Compound 387, 6-[(S)-2-(tert-butylamino)-1-hydroxyethyl]-2-pyridinecarbonitrile], the Emax at 10 µM in the assay on L6-myotubes [1] (setting [3]) was 25 to 50%; in the assay with L6-myotubes [2] (setting [4]) it was more than 75%.

For the molecule `CC(C)(C[C@H]1CC[C@H](NC(=O)OC(C)(C)C)CC1)NC[C@H](O)c1cccc(C(F)(F)F)n1` [Compound 459], the Emax at 10 µM was less than 25% with L6-myotubes [1] (setting [3]) and more than 75% in the assay on L6-myotubes [2] (setting [4]).

Turning to `COc1ccc(C[C@H]2CC[C@H]([C@@H](O)c3cccc(F)c3)N2)cc1` [Compound 375, (S)-{(2R,5R)-5-[(p-methoxyphenyl)methyl]-2-pyrrolidinyl}(m-fluorophenyl)methanol], the values for the Emax at 10 µM in the assay on L6-myotubes [1] (setting [3]) and in the assay with L6-myotubes [2] (setting [4]) were less than 25% and more than 75%, respectively.

With `CCCC(C)NCC(O)c1ccc(O)c(Cl)c1` (centres unmarked) [Compound 19, 1-(3-chloro-4-hydroxyphenyl)-2-(1-methylbutylamino)-1-ethanol], the Emax at 10 µM in the assay with L6-myotubes [1] (setting [5]) is less than 25%; with L6-myotubes [2] (setting [6]) it was 25 to 50%.

Take `CCCC(C)NCC(O)c1cc(Cl)c(O)c(Cl)c1` (centres unmarked) [Compound 25, 1-(3,5-dichloro-4-hydroxyphenyl)-2-(1-methylbutylamino)-1-ethanol]: the Emax at 10 µM in the assay with L6-myotubes [1] (setting [5]) and with L6-myotubes [2] (setting [6]) was less than 25% each time.

Consider `CC(=O)N[C@H]1CC[C@H](C(C)(C)NC[C@H](O)c2cccc(F)c2)CC1` [Compound 386, N-[(1R,4r)-4-{1-[(R)-2-(m-fluorophenyl)-2-hydroxyethylamino]-1-methylethyl}cyclohexyl] acetamide], for which the results for the Emax at 10 µM in the assay on L6-myotubes [1] (setting [3]) and in the assay with L6-myotubes [2] (setting [4]) were less than 25% and more than 75%, respectively.

Turning to `CO[C@H]1CC[C@@H](CC(C)(C)NC[C@H](O)c2cccc(F)c2)CC1` [Compound 247, (R)-2-{1,1-dimethyl-2-[(1s,4S)-4-methoxycyclohexyl]ethylamino}-1-(m-fluorophenyl)-1-ethanol], the Emax at 10 µM in the assay with L6-myotubes [1] (setting [3]) is less than 25%; with L6-myotubes [2] (setting [4]), more than 75%.

With `CO[C@H]1CC[C@H](C[C@H]2CC[C@H]([C@@H](O)c3cccc(F)c3)N2)CC1` [Compound 334, (S)-[(2R,5R)-5-{[(1r,4R)-4-methoxycyclohexyl]methyl}-2-pyrrolidinyl] (m-fluorophenyl)methanol], the results for the Emax at 10 µM in the assay on L6-myotubes [1] (setting [3]) and in the assay with L6-myotubes [2] (setting [4]) were less than 25% and 25 to 50%, respectively.

`CC(C)(C)NC[C@H](O)c1cccc(F)c1F` [Compound 76, (R)-2-(tert-butylamino)-1-(2,3-difluorophenyl)-1-ethanol]: the results for the Emax at 10 µM with L6-myotubes [1] (setting [5]) and in the assay with L6-myotubes [2] (setting [6]) were 25 to 50% and more than 75%, respectively.

`CO[C@H]1CC[C@H](CCNC[C@H](O)c2cncc(F)c2)CC1` [Compound 225, (R)-1-(5-fluoro-3-pyridyl)-2-{2-[(1r,4R)-4-methoxycyclohexyl]ethylamino}-1-ethanol]: the Emax at 10 µM was less than 25% with L6-myotubes [1] (setting [3]) and 50 to 75% in the assay with L6-myotubes [2] (setting [4]).

Consider `CCCC12CCC([C@H](O)c3cccc(F)c3)(CC1)N2` [Compound 183, (R)-(m-fluorophenyl)(4-propyl-7-azabicyclo[[2.2.1]]hept-1-yl)methanol], for which the Emax at 10 µM in the assay on L6-myotubes [1] (setting [5]) is 25 to 50%; in the assay on L6-myotubes [2] (setting [6]), 50 to 75%.

`CC(=O)N[C@H]1CC[C@@H](CC(C)(C)NC[C@@H](O)c2cccc(C#N)n2)CC1` [Compound 423]: the Emax at 10 µM in the assay with L6-myotubes [1] (setting [3]) and with L6-myotubes [2] (setting [4]) was less than 25% in each case.

For `O[C@@H](CNCC[C@H]1CC[C@H](O)CC1)c1cccc(F)c1` [Compound 298, (R)-1-(m-fluorophenyl)-2-{2-[(1r,4R)-4-hydroxycyclohexyl]ethylamino}-1-ethanol], the Emax at 10 µM in the assay on L6-myotubes [1] (setting [3]) is less than 25%; with L6-myotubes [2] (setting [4]) it was 25 to 50%.

`CC12CC(C1)[C@H]([C@H](O)c1cncc(F)c1)N2` [Compound 220, (R)-{(R)-1-methyl-2-azabicyclo[[2.1.1]]hex-3-yl}(5-fluoro-3-pyridyl)methanol]: the Emax at 10 µM was less than 25% in the assay with L6-myotubes [1] (setting [3]) and more than 75% in the assay with L6-myotubes [2] (setting [4]).

As for `CC1(C)CC[C@H]([C@@H](O)c2cccc(N)c2F)N1` [Compound 226, (S)-[(R)-5,5-dimethyl-2-pyrrolidinyl](3-amino-2-fluorophenyl)methanol], the Emax at 10 µM was less than 25% in the assay on L6-myotubes [1] (setting [3]) and 25 to 50% in the assay with L6-myotubes [2] (setting [4]).

Consider `Cc1c(F)cccc1[C@@H](O)CNC(C)(C)C` [Compound 150, (R)-2-(tert-butylamino)-1-(3-fluoro-2-tolyl)-1-ethanol], for which the Emax at 10 µM is 25 to 50% in the assay with L6-myotubes [1] (setting [5]) and more than 75% in the assay with L6-myotubes [2] (setting [6]).

For the molecule `CC(C)(C[C@H]1CC[C@@H](C#N)CC1)NC[C@H](O)c1cccc(F)c1` [Compound 399, (1S,4s)-4-{2-[(R)-2-(m-fluorophenyl)-2-hydroxyethylamino]-2-methylpropyl} cyclohexanecarbonitrile], the Emax at 10 µM with L6-myotubes [1] (setting [3]) was 25 to 50%; in the assay on L6-myotubes [2] (setting [4]), more than 75%.

`CCCCNCC(O)c1ccc(F)c(NC(C)=O)c1F` (centres unmarked) [Compound 42, N-{3-[2-(butylamino)-1-hydroxyethyl]-2,6-difluorophenyl}acetamide]: the Emax at 10 µM was less than 25% in the assay with L6-myotubes [1] (setting [5]) and 25 to 50% in the assay on L6-myotubes [2] (setting [6]).

For the molecule `CC12CCC([C@H](O)c3cccc(F)c3)(CC1)N2` [Compound 179, (R)-(m-fluorophenyl)(4-methyl-7-azabicyclo[[2.2.1]]hept-1-yl)methanol], the Emax at 10 µM in the assay with L6-myotubes [1] (setting [5]) was less than 25%; with L6-myotubes [2] (setting [6]), 50 to 75%.

For `CC1(C)C[C@@H]([C@@H](O)c2cccc(F)c2)N1` [Compound 199], the Emax at 10 µM was less than 25% in the assay with L6-myotubes [1] (setting [3]) and 25 to 50% in the assay with L6-myotubes [2] (setting [4]).

Take `CCC[C@@H]1CC[C@H](C(O)c2cccc(O)c2)N1` (stereo in doubt) [Compound 57, m-{(R)-[(2R,5R)-5-propyl-2-pyrrolidinyl] hydroxymethyl}phenol]: the “Biological example 3 (CAMP)” value with L6-myotubes [1] (setting [5]) is “++ (if it is between 75 and 50% it is denoted with ++)”. Besides, the “Biological example 2 (GU)” value in the assay with L6-myotubes [2] (setting [6]) is given as “+++ (If a compound at 10 μM shows activity of more than 75% of that of isoproterenol at 10 μM, the activity is denoted with +++)”.

With `CC1(C)C[C@H]([C@H](O)c2cncc(F)c2)N1` [Compound 214], the Emax at 10 µM is less than 25% in the assay with L6-myotubes [1] (setting [3]) and more than 75% in the assay on L6-myotubes [2] (setting [4]).

In the case of `CC12CC(C1)[C@@H]([C@@H](O)c1ccccc1F)N2` [Compound 211, (S)-{(S)-1-methyl-2-azabicyclo[[2.1.1]]hex-3-yl}(o-fluorophenyl)methanol], the figures for the Emax at 10 µM in the assay on L6-myotubes [1] (setting [3]) and with L6-myotubes [2] (setting [4]) were less than 25% and more than 75%, respectively.

With `CC(C)(C[C@H]1CC[C@@H](NS(C)(=O)=O)CC1)NC[C@@H](O)c1cccc(C#N)n1` [Compound 424, 6-[(R)-2-{1,1-dimethyl-2-[(1s,4S)-4-(mesylamino)cyclohexyl]ethylamino}-1-hydroxyethyl]-2-pyridinecarbonitrile], the Emax at 10 µM in the assay on L6-myotubes [1] (setting [3]) is less than 25%; with L6-myotubes [2] (setting [4]), 25 to 50%.

As to `CCCCNCC(O)c1cc[nH]c(=O)c1` (centres unmarked) [Compound 62, 4-[2-(butylamino)-1-hydroxyethyl]-2(1H)-pyridinone], the Emax at 10 µM in the assay on L6-myotubes [1] (setting [5]) was less than 25%; in the assay on L6-myotubes [2] (setting [6]), 25 to 50%.

As to `CC1(C)CC[C@@H]([C@H](O)c2cccc(O)c2)N1` [Compound 142, m-{(R)-[(S)-5,5-dimethyl-2-pyrrolidinyl] hydroxymethyl}phenol], the Emax at 10 µM with L6-myotubes [1] (setting [5]) was less than 25%; with L6-myotubes [2] (setting [6]), 25 to 50%.

Regarding `CC(=O)N[C@H]1CC[C@@H](C[C@@H]2CC[C@H]([C@@H](O)c3cccc(F)c3)N2)CC1` [Compound 483], the Emax at 10 µM with L6-myotubes [1] (setting [3]) and in the assay on L6-myotubes [2] (setting [4]) was less than 25% each time.

`O[C@@H](CNC[C@H]1CC[C@@H](OCc2ccccc2)CC1)c1cncc(F)c1` [Compound 263, (R)-1-(5-fluoro-3-pyridyl)-2-({[(1s,4S)-4-(benzyloxy)cyclohexyl]methyl}amino)-1-ethanol]: the Emax at 10 µM in the assay on L6-myotubes [1] (setting [3]) was less than 25%; in the assay on L6-myotubes [2] (setting [4]), more than 75%.

Regarding `CC(C)(C[C@H]1CC[C@H](O)CC1)NC[C@H](O)c1cccc(F)c1` [Compound 300, (R)-2-{1,1-dimethyl-2-[(1r,4R)-4-hydroxycyclohexyl]ethylamino}-1-(m-fluorophenyl)-1-ethanol], the Emax at 10 µM is less than 25% in the assay on L6-myotubes [1] (setting [3]) and more than 75% with L6-myotubes [2] (setting [4]).

Take `CCC[C@@H]1CC[C@H]([C@H](O)c2ccccc2Cl)N1` [Compound 148, (R)-[(2R,5R)-5-propyl-2-pyrrolidinyl](o-chlorophenyl)methanol]: the Emax at 10 µM in the assay with L6-myotubes [1] (setting [5]) is less than 25%; in the assay with L6-myotubes [2] (setting [6]), more than 75%.

Turning to `O[C@H](c1cccc(F)c1)C12CCC(Cc3ccc(F)cc3)(CC1)N2` [Compound 413, (R)-(m-fluorophenyl){4-[(p-fluorophenyl)methyl]-7-azabicyclo[[2.2.1]]hept-1-yl}methanol], the Emax at 10 µM with L6-myotubes [1] (setting [3]) was less than 25%; with L6-myotubes [2] (setting [4]) it was more than 75%.

Regarding `O[C@@H](CNCC[C@H]1CC[C@H](OCc2ccccc2)CC1)c1cccc(F)c1` [Compound 288, (R)-1-(m-fluorophenyl)-2-{2-[(1r,4R)-4-(benzyloxy)cyclohexyl]ethylamino}-1-ethanol], the Emax at 10 µM is less than 25% with L6-myotubes [1] (setting [3]) and 25 to 50% with L6-myotubes [2] (setting [4]).

In the case of `CCC[C@H](C)NC[C@H](O)c1cccc(F)c1` [Compound 51], the Emax at 10 µM is less than 25% in the assay on L6-myotubes [1] (setting [5]) and more than 75% in the assay on L6-myotubes [2] (setting [6]).

Take `COc1ccc(CCC23CCC([C@H](O)c4cccc(F)c4)(CC2)N3)cc1` [Compound 540, (R)-(m-fluorophenyl){4-[2-(p-methoxyphenyl)ethyl]-7-azabicyclo[[2.2.1]]hept-1-yl}methanol]: the figures for the Emax at 10 µM in the assay with L6-myotubes [1] (setting [3]) and in the assay with L6-myotubes [2] (setting [4]) were 25 to 50% and 50 to 75%, respectively.
